The values below come from ChEMBL document CHEMBL3627701, “(2-Arylethenyl)-1,3,5-triazin-2-amines as a novel histamine H4 receptor ligands” (Eur J Med Chem, 2015).

Each structure is given as a SMILES string. pIC50, pKi: −log10 of the molar value. Calls of active or inactive are those of the source. No cut-off for these calls is given here. Where only a bound is given, the exact number is not on record here.

What is called pKi is the negative decadic logarithm of the Ki, by convention in mol/L. A word on the pIC50: it is the IC50 on a negative log10 scale, so that one unit is a factor of ten. Usually inhibition in vivo stands for the drop in the measured response relative to a control, in per cent. What is called inhibition is the percentage by which the read-out fell short of the control.

Data set [1] concerns the target T1, Histamine H4 receptor (Homo sapiens, UniProt Q9H3N8). The data set can be described thus: Displacement of [3H]histamine from human H4 receptor expressed in Sf9 cell membranes co-expressing Galphai2 and Gbeta1gamma2 after 60 mins by liquid scintillation counting assay. The format is cell-based. In general terms: In a radioligand displacement assay an active substance lowers the binding of a labelled ligand.

For data set [2], the system named is Liver microsome. Kind of data set: Retention time in human liver microsomes at 50 uM after 48 hrs by LC-MS analysis. It counts as ADME.
For data set [3], the system named is Liver microsome. The data set can be described thus: Drug level in human liver microsomes treated with 50 uM 4-[(E)-2-(3-chlorophenyl)ethenyl]-6-(4-methylpiperazin-1-yl)-1,3,5-triazin-2-amine assessed as compound formation after 48 hrs by LC-MS analysis. The format is ADME.
For data set [4], the target named is T1, Histamine H4 receptor. Kind of data set: Antagonist activity at human H4R expressed in CHO cells assessed as inhibition of forskolin-induced cAMP accumulation after 30 mins by TR-FRET immunoassay. The format is functional, cell-based.
The subject of data set [5] is Mus musculus. The data set can be described thus: Antiinflammatory activity in albino Swiss mouse assessed as inhibition of carrageenan-induced paw edema at 50 mg/kg, po administered prior to carrageenan challenge measured after 1 to 3 hrs by plethysmometry relative to control. It counts as functional.
For data set [6], the system named is Mus musculus. Kind of data set: Antiinflammatory activity in albino Swiss mouse assessed as inhibition of carrageenan-induced paw edema at 25 mg/kg, po administered prior to carrageenan challenge measured after 1 to 3 hrs by plethysmometry relative to control. The format is functional.
In data set [7] the target is Histamine H3 receptor (Homo sapiens) (UniProt Q9Y5N1). The data set can be described thus: Displacement of [3H]-N-alpha-methylhistamine from human H3 receptor expressed in HEK293 cells at >=30 uM after 60 mins by liquid scintillation counter assay. The format is cell-based.
Chain of Histamine H3 receptor (Homo sapiens) (Q9Y5N1 whole entry): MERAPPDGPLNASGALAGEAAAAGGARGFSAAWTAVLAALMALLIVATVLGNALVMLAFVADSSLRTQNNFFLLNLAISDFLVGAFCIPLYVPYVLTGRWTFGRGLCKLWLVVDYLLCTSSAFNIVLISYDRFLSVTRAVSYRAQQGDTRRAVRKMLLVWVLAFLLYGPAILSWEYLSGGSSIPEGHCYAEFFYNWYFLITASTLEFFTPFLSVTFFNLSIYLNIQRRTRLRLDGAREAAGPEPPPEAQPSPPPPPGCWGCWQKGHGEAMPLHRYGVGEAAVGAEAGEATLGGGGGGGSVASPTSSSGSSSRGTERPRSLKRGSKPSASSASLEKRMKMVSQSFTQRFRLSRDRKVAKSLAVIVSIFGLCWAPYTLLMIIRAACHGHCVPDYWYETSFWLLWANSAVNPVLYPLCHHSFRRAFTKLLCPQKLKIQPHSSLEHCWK
A short description of data set [8]: Ratio of IC50 for doxorubicin to antiproliferative activity for test compound against human IMR32 cells. Conditions: read-out: Ratio IC50. The format is cell-based, IMR-32.
Data set [9] deals with Liver microsome. Kind of data set: Drug metabolism in human liver microsomes assessed as metabolite M1 formation at 50 uM after 48 hrs by LC-MS analysis. It counts as ADME. A general note: Microsomes from liver hold many membrane-bound enzymes, among them those of drug oxidation.
For data set [10], the system named is HEK293. The data set can be described thus: Antiproliferative activity against HEK293 cells assessed as inhibition of cell viability at 0.01 to 250 uM after 48 hrs. It counts as cell-based. Conditions: human, hek293, 48 h.
Data set [11] concerns Salmonella typhimurium. The data set can be described thus: Genotoxicity in Salmonella typhimurium TA98 at 1 to 100 uM after 48 hrs by MPF assay. The format is toxicity, organism-based. Conditions: salmonella enterica subsp. enterica serovar typhimurium.
In data set [12] the target is CYP3A4 (Homo sapiens, UniProt P08684). Kind of data set: Inhibition of human recombinant CYP3A4 assessed as conversion of luciferin-PPXE to D-luciferin at 25 uM by luminescence Glo assay relative to control. It counts as ADME. Conditions: recombinant CYP3A4, probe luciferin-PPXE.
Chain of CYP3A4 (P08684 whole entry): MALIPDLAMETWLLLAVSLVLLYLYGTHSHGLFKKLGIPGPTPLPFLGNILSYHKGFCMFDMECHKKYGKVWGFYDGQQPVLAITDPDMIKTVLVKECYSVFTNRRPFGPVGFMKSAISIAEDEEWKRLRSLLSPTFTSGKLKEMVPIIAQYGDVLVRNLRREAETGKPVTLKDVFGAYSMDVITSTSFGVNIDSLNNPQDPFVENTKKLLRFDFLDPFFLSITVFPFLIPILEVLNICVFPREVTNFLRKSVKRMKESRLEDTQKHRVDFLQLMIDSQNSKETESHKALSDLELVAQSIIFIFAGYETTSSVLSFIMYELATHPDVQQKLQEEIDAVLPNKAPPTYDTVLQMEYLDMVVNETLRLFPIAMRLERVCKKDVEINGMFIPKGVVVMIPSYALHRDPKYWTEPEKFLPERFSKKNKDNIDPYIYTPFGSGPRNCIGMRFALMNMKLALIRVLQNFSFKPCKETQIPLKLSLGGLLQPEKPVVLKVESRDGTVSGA
In data set [13] the test system is Mus musculus. The data set can be described thus: Antiinflammatory activity in albino Swiss mouse assessed as inhibition of carrageenan-induced paw edema at 25 mg/kg, po administered prior to carrageenan challenge measured after 3 hrs by plethysmometry relative to control. It counts as functional. A general note: Carrageenan injected into the paw causes an acute inflammation.

The test system of data set [14] is Mus musculus. The data set can be described thus: Antiinflammatory activity in albino Swiss mouse assessed as inhibition of carrageenan-induced paw edema at 50 mg/kg, po administered prior to carrageenan challenge measured after 1 hr by plethysmometry relative to control. The format is functional.
Data set [15] in a line: Antiproliferative activity against human IMR32 cells assessed as inhibition of cell viability at 0.01 to 250 uM after 48 hrs. The note with it: imr-32, 48 h. It counts as cell-based.
Data set [16] concerns Liver microsome. The data set can be described thus: Drug metabolism in human liver microsomes assessed as metabolite M2 formation at 50 uM after 48 hrs by LC-MS analysis. It counts as ADME.
Data set [17] concerns Mus musculus. Kind of data set: Antiinflammatory activity in albino Swiss mouse assessed as inhibition of carrageenan-induced paw edema at 25 mg/kg, po administered prior to carrageenan challenge measured after 1 hr by plethysmometry relative to control. It counts as functional.
Data set [18] relates to Mus musculus. The data set can be described thus: Antiinflammatory activity in albino Swiss mouse assessed as inhibition of carrageenan-induced paw edema at 50 mg/kg, po administered prior to carrageenan challenge measured after 2 hrs by plethysmometry relative to control. The format is functional.
The target of data set [19] is T2, Histamine H4 receptor (Mus musculus, UniProt Q91ZY2).
T2 sequence (Q91ZY2 whole entry): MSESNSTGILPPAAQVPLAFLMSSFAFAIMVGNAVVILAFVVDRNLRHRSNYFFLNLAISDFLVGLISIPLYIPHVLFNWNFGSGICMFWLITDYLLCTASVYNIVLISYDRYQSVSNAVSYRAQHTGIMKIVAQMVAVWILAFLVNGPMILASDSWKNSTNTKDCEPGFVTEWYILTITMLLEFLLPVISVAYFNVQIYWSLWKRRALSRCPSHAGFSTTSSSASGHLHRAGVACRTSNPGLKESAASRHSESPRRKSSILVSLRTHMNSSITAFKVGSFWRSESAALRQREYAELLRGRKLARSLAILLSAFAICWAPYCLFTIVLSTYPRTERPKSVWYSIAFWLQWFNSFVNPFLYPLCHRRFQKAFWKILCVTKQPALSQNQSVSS
Kind of data set: Displacement of [3H]histamine from mouse H4 receptor expressed in HEK293 cell membranes co-expressing Galphai2 and Gbeta1gamma2 after 1 hr by liquid scintillation counting assay.

The subject of data set [20] is Mus musculus. Kind of data set: Antiinflammatory activity in albino Swiss mouse assessed as inhibition of carrageenan-induced paw edema at 25 mg/kg, po administered prior to carrageenan challenge measured after 2 hrs by plethysmometry relative to control. It counts as functional.
Data set [21] has as its system Mus musculus. Kind of data set: Antiinflammatory activity in albino Swiss mouse assessed as inhibition of carrageenan-induced paw edema at 10 mg/kg, po administered prior to carrageenan challenge measured after 1 to 3 hrs by plethysmometry relative to control. The format is functional.
The test system of data set [22] is Mus musculus. The data set can be described thus: Antiinflammatory activity in albino Swiss mouse assessed as inhibition of carrageenan-induced paw edema at 50 mg/kg, po administered prior to carrageenan challenge measured after 3 hrs by plethysmometry relative to control. The format is functional.
Data set [23] is described as follows: Antiproliferative activity against human IMR32 cells assessed as inhibition of cell viability after 48 hrs. It counts as cell-based. Conditions: IMR-32, 48 h.
Data set [24] concerns Mus musculus. Kind of data set: Antiinflammatory activity in albino Swiss mouse assessed as inhibition of carrageenan-induced paw edema at 10 mg/kg, po administered prior to carrageenan challenge measured after 1 hr by plethysmometry relative to control. It counts as functional.
Data set [25] deals with Mus musculus. The data set can be described thus: Antiinflammatory activity in albino Swiss mouse assessed as inhibition of carrageenan-induced paw edema at 10 mg/kg, po administered prior to carrageenan challenge measured after 3 hrs by plethysmometry relative to control. The format is functional.
The test system of data set [26] is Mus musculus. The data set can be described thus: Antiinflammatory activity in albino Swiss mouse assessed as inhibition of carrageenan-induced paw edema at 10 mg/kg, po administered prior to carrageenan challenge measured after 2 hrs by plethysmometry relative to control. It counts as functional.

T1 sequence (Q9H3N8 whole entry): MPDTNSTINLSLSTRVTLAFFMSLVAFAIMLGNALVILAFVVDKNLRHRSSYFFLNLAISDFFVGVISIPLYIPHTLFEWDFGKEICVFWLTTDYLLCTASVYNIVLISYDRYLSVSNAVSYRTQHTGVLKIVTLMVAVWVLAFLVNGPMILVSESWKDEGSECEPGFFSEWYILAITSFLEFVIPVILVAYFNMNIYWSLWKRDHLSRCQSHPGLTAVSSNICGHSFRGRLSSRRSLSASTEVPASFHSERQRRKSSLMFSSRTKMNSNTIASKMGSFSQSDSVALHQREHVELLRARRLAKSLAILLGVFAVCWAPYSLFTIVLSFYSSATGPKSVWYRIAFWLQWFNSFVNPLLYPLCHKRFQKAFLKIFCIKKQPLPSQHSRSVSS

Turning to `CN1CCN(c2nc(N)nc(/C=C/c3cccc(Br)c3)n2)CC1`, the pKi in data set [1] is 5.94.

As to `CN1CCN(c2nc(N)nc(/C=C/c3ccc(Cl)c(Cl)c3)n2)CC1`, the pKi in data set [1] was 5.75.

On to `CN1CCN(c2nc(N)nc(/C=C/c3ccccc3Cl)n2)CC1`, for which, in data set [1], the pKi is 5.31.

In [2], `Nc1nc(/C=C/c2cccc(Cl)c2)nc(N2CCNCC2)n1` had a Retention_time of 3.55 min. Besides, the Drug metabolism entry in data set [3] is listed as “metabolite_detected”.

In [1], `CN1CCN(c2nc(N)nc(/C=C/c3cccc([N+](=O)[O-])c3)n2)CC1` gave a pKi of 5.59.

For the compound `CN1CCN(c2nc(N)nc(/C=C/c3cccc(C#N)c3)n2)CC1`, the negative-log Ki (pKi) in data set [1] was 5.58.

With `Cc1cccc(/C=C/c2nc(N)nc(N3CCN(C)CC3)n2)c1`, the pIC50 in data set [4] was 6.22. Also, in [5], the inhibition in vivo at 50 mg/kg amounted to 88%. Moreover, in data set [6], the inhibition in vivo at 25 mg/kg stood at 53%. Besides, the pKi in [1] was 6.15. The inhibition entry in data set [7] was “Active”.

As for `Cc1ccc(/C=C/c2nc(N)nc(N3CCN(C)CC3)n2)cc1`, the pKi in data set [1] is 4.43.

Consider `CN1CCN(c2nc(N)nc(/C=C/c3c[nH]c4ccccc34)n2)CC1`, for which the pKi in [1] was 5.60.

The compound `CN1CCN(c2nc(N)nc(/C=C/c3ccc4ccccc4c3)n2)CC1` had a pKi in data set [1] of 5.42.

`CN1CCN(c2nc(N)nc(/C=C/c3cccc4ccccc34)n2)CC1` showed a pKi in data set [1] of 4.52.

In data set [1], `CN1CCN(c2nc(N)nc(/C=C/c3ccc(Cl)cc3Cl)n2)CC1` gave a negative logarithm of the Ki (pKi) of 5.04.

Regarding `Cc1ccccc1/C=C/c1nc(N)nc(N2CCN(C)CC2)n1`, the negative-log Ki (pKi) in [1] is 5.65.

In turn, `CN1CCN(c2nc(N)nc(/C=C/c3cccc(C(F)(F)F)c3)n2)CC1` showed a pKi in data set [1] of 5.61.

On to `CN1CCN(c2nc(N)nc(/C=C/c3cccc(Cl)c3)n2)CC1`, for which, in [2], the Retention_time is listed as 3.63 min. The selectivity ratio in data set [8] is greater than 1000. The Drug metabolism entry in data set [9] and in [16] was “metabolite_detected” throughout. Besides, the Activity entry in [10], in data set [11] and in [15] was “Non-toxic” throughout. For the same compound, the pIC50 in data set [4] was 6.36. Also, the inhibition at 25 µM in data set [12] is 58%. Moreover, the inhibition in vivo at 25 mg/kg in [13] is 65%; in data set [17], 59%; in [20], 58%. The inhibition in vivo at 50 mg/kg in data set [14] is 69%; in [18] it was 62%; in data set [22] it was 67%. Also, the negative-log Ki (pKi) in data set [1] was 6.60; in data set [19], 6.07. Further, the inhibition in vivo at 10 mg/kg in data set [21] was 50%. The inhibition result in [7] was “Active”.

For the compound `COc1cccc2c1C(=O)c1c(O)c3c(c(O)c1C2=O)C[C@@](O)(C(=O)CO)C[C@@H]3O[C@H]1C[C@H](N)[C@H](O)[C@H](C)O1` [DOXORUBICIN], the pIC50 in [23] is 8.29.

Take `CN1CCN(c2nc(N)nc(/C=C/c3cccc(F)c3)n2)CC1`: in data set [1], the pKi was 5.45.

`CN1CCN(c2nc(N)nc(/C=C/c3ccc(Cl)cc3)n2)CC1` gave a pKi in data set [1] of 5.38.

Turning to `CC(C(=O)O)c1cccc(C(=O)c2ccccc2)c1` (stereo unspecified) [KETOPROFEN], the inhibition in vivo at 25 mg/kg in data set [13] amounted to 67%; in [17] it was 20%; in data set [20], 54%. The inhibition in vivo at 50 mg/kg in data set [14] is 67%; in data set [18], 71%; in data set [22], 77%. Further, the inhibition in vivo at 10 mg/kg in data set [24] was found to be 27%; in data set [25], 63%; in data set [26] it was 55%.

For `CN1CCN(c2nc(N)nc(/C=C/c3ccccc3)n2)CC1`, in data set [1], the pKi was 5.28.
